Legend:
[1] = Artificial membrane permeability assay (PAMPA) (Example 36); assay type: in vitro ADME
Protocol: In order to test the ability SDC-TRAP molecules of the invention to enter cells, an artificial membrane permeability assay (“PAMPA”) was used. […] LC/MS was used in conjunction with PAMPA assays to determine the ability of the SDC-TRAP molecules of the invention to permeate cells.
Pre-coated PAMPA plates were warmed to room temperature for at least 30 minutes prior to adding assay components.
Stock solutions were prepared with the SDC-TRAP molecules to be tested. In order to make a working solution, either 50 μL of 100 μM Stock in DMSO+950 μL of PBS or 50 μL of 200 μM stock was added to 96 deep well plate, resulting in a 5 μM final concentration or a 10 μM final concentration, respectively. 300 μL of the working solution containing each compound to be tested was added to the appropriate well of a donor PAMPA plate. 200 μL of PBS was added into the corresponding wells of an acceptor PAMPA plates.
The acceptor plate was lowered onto the donor plate and allowed to incubate for five hours. After five hours, a 50 μL aliquot was removed from each well of each plate and added into a new 96 deep-well plate.
100 μL of methanol containing an internal standard was added to each aliquot and analyzed by LC/MS. The internal standard was 150 ng/ml SDC-TRAP-0002.
In order to calculate the permeability for each SDC-TRAP molecule and the control molecules, the following formula was used:

[2] = Stability in human plasma (Example 5); assay type: in vitro ADME
Protocol: (§1) This example illustrates a method for assessing the stability of SDC-TRAP of the invention in human and mouse plasma.
(§2) SDC-TRAP-0022 and SDC-TRAP-0028 were incubated in human and mouse plasma for 2 h at 37° C. and assayed for integrity at 0.25, 0.5, 1 and 2 h. The values reported below are the remaining of the parent compound at the end of the 2 h incubation period.

[3] = Stability in mouse plasma (Example 5); assay type: in vitro ADME
Protocol: as §1, §2

HER2 [4] = assay: HER2 degradation in BT-474 cells (Example 3, Western blot / in-cell imaging); assay type: cell-based, human; details: Homo sapiens
Protocol: BT-474 cells are plated in the interior 60 wells of a 96 well black clear bottom plate (20,000 cells/well) in DMEM medium, with DMEM media in the surrounding 36 wells, and incubated at 37° C. with 5% CO2 overnight. On the second day, concentration response curve source plates are produced (10 point, 3-fold dilution of compounds in DMSO) followed by a 1:30 dilution in an intermediate dilution plate containing DMEM. Compound is transferred from the intermediate plate to the cell plate at a dilution of 1:10.
Cells are then fixed in 4% phosphate-buffered paraformaldehyde for 30 minutes at room temperature and then permeabilized by washing five times with 0.1% Triton X-100 in PBS for 5 minutes at room temperature on a shaker. […] Cells are washed 5 times with 0.1% Tween-20 in PBS for 5 minutes at room temperature on a shaker and imaged on a LI-COR Odyssey imaging station. The raw data is normalized to DRAQ5 and the HER2 EC50 is calculated using XLfit™.

HER2 [5] = assay: HER2 degradation assay with BT-474 cell line (Example 12, FACS); assay type: cell-based; details: Homo sapiens
[6] = system: MCF-7 breast cancer cells; assay: Mouse xenograft efficacy in an MCF-7 breast cancer model; assay type: in vivo; details: 150 or 100 mg/kg/1×wk; FIG. 8
Protocol: Mouse Xenograft Efficacy Data in an MCF-7 Breast Cancer Model
MCF-7 breast cancer cells were purchased from ATCC. […] Fetal bovine serum was then added to the medium. The final concentration of fetal bovine serum was 10%. Cells were cultured at 37° C. and 5% CO2.
Mice that were not put on treatment were euthanized. Animals were sourced through CRL (Wilmington, Mass.).

[7] = mouse, in vivo
Protocol: (§3) Tissue Distribution Extraction Procedure for SDC-TRAP Tumor Samples
(§4) A 150 ng/mL solution of SDC-TRAP-0002 in methanol was prepared using an internal spiking solution (500 μg/mL SDC-TRAP-0002 in DMSO). Using the 10 mM stock solutions of the SDC-TRAP molecule and its Hsp90i binding moiety and effector moiety in DMSO, spiking solutions were prepared at 0.025, 0.05, 0.1, 0.5, 1, 5, 10, 50, 100, 250, and 500 μM in DMSO. 5 μL of each spiking solution was added to a 96-deep well plate.
(§5) Quality control standards were prepared from 5 μL of 0.1, 1, and 10 μM calibration standard spiking solution added in triplicate into 96-deep well plate and adding 50 μL of matrix (plasma or homogenized tumor).
(§6) To prepare test samples, test plasma was diluted as needed using blank plasma. Tumor samples were pulverized in liquid nitrogen, weighed, and homogenized in PBS at 5× volume to sample weight. 50 μL of unknown plasma or homogenized tumor sample was mixed with 5 μL of DMSO. The samples were extracted by precipitating calibration standards, QC standards, and unknown samples with 200 μL of internal standard solution. The samples were mixed by vortex at room temperature for approximately 1.5 minutes, then centrifuge at 2-8° C. 150 μL of supernatant was collected and 25 μL of water added. Samples were mixed and analyzed by LC-MS/MS.
(§7) Samples of plasma, heart and tumor were excised from a euthanized mouse, homogenized in PBS at 5 times tissue weight and diluted in 5 μL DMSO/50 μL sample. Prior to analysis, 55 μL samples and calibration standards were precipitated in 200 μL methanol in 96-well plates. Samples were mixed on a vortex mixer for 1.5 minutes at 1500 rpm at room temperature, then centrifuged at 4400 rpm for 10 minutes at 8° C. 150 μL of each supernatant was transferred to a well of a new 96-well plate, and 25 μL of water was added and mixed with the sample. […] For the analysis of samples from female SCID mice, a gradient of solvent A (water/0.1% formic acid) and B (acetonitrile/0.1% formic acid) was used as in Table A below.

in vivo = details: mouse
Protocol: as §3, §4, §5, §6, §7

[8] = Mouse plasma stability (Examples 16-18); assay type: in vitro ADME
Protocol: Plasma Stability Protocol for SDC-TRAP Compounds
This solution was used to precipitate all plasma samples in the study. 200 μL was pipetted into a 96 deepwell plate over dry ice. 10 μL of 1 mM stock in DMSO was added to a 1.5 mL microfuge tube, then 990 μL of plasma. Samples were mixed by vortex, then 50 μL of each sample was added in triplicate to a 96-well plate containing internal standard solution. This was designated the 0 hour time point sample. 250 μL of the remaining plasma sample was added to each of four 96 deepwell plates—one per time point. Samples were incubated at 37° C. with gentle shaking for 0.25, 0.5, and 1 hour. After each time point, one plate of each sample was removed from the shaker and placed on wet ice for approximately 2 minutes. 50 μL plasma aliquots (in triplicate) were added to the deepwell plate containing internal standard solution. After the last time point was extracted, the 96 deepwell plate was vortexed, then centrifuged at 2-8° C. 150 μL of supernatant was collected and 25 μL of water was added. Samples were mixed and analyzed by LC-MS/MS.
The stability of seven SDC-TRAP types in mouse plasma was measured as follows. […] Each sample was mixed and divided into 250 μL aliquots, each representing time points 0, 15 minutes, 30 minutes or 1 hour. […]

[9] = Stability in cell culture media (Example 18); assay type: in vitro ADME
Protocol: SDC-TRAP Stability in Mouse Plasma and Cell Culture Media
Mouse plasma samples were prepared according to Example 16.

[10] = system: human breast cancer cell line BT-474; assay: Cytotoxicity assay with cancer cell lines, BT-474 (Example 13); assay type: cell-based; details: BT-474, 72 h, read-out: Cytotoxicity (IC50, nM) BT-474
Protocol: (§8) Cytotoxicity Assay with Cancer Cell Lines
(§9) Cytotoxicity of SDC-TRAP molecules was determined in three cancer cell lines. […] 80 μL of CellTiter-Glo was added to each well, followed by room temperature incubation in the dark for 15 minutes. Cell was determined by luminescence. IC50 was calculated using XLfit™ software.

[11] = system: human urinary bladder cancer cell line RT-112; assay: Cytotoxicity assay with cancer cell lines, RT-112 (Example 13); assay type: cell-based; details: RT-112, 72 h, read-out: Cytotoxicity (IC50, nM) RT-112
Protocol: as §8, §9

[12] = system: human urinary bladder cancer cell line SW780; assay: Cytotoxicity assay with cancer cell lines, SW780 (Example 13); assay type: cell-based; details: SW780, 72 h, read-out: Cytotoxicity (IC50, nM) SW-780
Protocol: as §8, §9

[13] = Tissue distribution of ganetespib in female CD-1 nu/nu mice bearing RERF human NSCLC xenografts; assay type: in vivo, mouse; details: 24 hr after 50 mg/kg IV
Excerpt: Tissue distribution of ganetespib in female CD-1 nu/nu mice bearing RERF human NSCLC xenografts
To confirm the distribution of ganetespib in blood, livers, kidneys, brains, hearts, lungs and tumors after IV administration of ganetespib to female CD-1 nu/nu mice bearing RERF human NSCLC xenografts, and to examine metabolic profiles of ganetespib in plasma, red blood cells, and above tissues.
Animals: female CD-1 nu/nu mice bearing RERF human NSCLC xenografts (N=3/group)
Formulation: 10% DMSO, 18% Cremophor RH40, 3.6% dextrose solution (DRD)
Bleeding time points: 5 min, 6, 24 hr
Collected tissues: blood (plasma and red blood cells (RBC)), liver, kidneys, brain, heart, lung, tumor
Protein precipitation: 50 μL of 10 times diluted plasma or RBC+150 μL ACN (10 mM NH4OAc), vortexed and centrifuged at 10000 rpm for 8 min; 150 μL supernatant+150 μL water (10 mM NH4OAc)
Protein precipitation: 100 μL homogenized tissue (1:3 tissue: PBS buffer)+100 μL ACN (10 mM NH4OAc), vortexed and centrifuged at 10000 rpm for 8 min Bioanalysis

[14] = BT-474 cells, read-out: HER2 (IC50)
[15] = BT-474, SDC-TRAPs of the 43rd table

`CC(C)c1cc(-c2nnc(O)n2-c2ccc3c(ccn3CCNC(=O)CCCC[C@@H]3SCC4NC(=O)NC43)c2)c(O)cc1O` (stereo in doubt) [SDC-TRAP-0233, N-(2-(5-(3-(2,4-dihydroxy-5-isopropylphenyl)-5-hydroxy-4H-1,2,4-triazol-4-yl)-1H-indol-1-yl)ethyl)-5-((3 aS,4S,6aR)-2-oxohexahydro-1H-thieno[3,4-d]imidazol-4-yl)pentanamide] gave a Papp at 5 h ([1]; incubation 5 h, the 55th table) of 0.021 ×10⁻⁶ cm/s.
For `CCc1c2c(nc3ccc(OC(=O)N(C)CCn4ccc5cc(-n6c(O)nnc6-c6cc(C(C)C)c(O)cc6O)ccc54)cc13)-c1cc3c(c(=O)n1C2)COC(=O)C3(O)CC` (stereo not drawn) [SDC-TRAP-0022, 4,11-diethyl-4-hydroxy-3,14-dioxo-3,4,12,14-tetrahydro-1H-pyrano[3′,4′:6,7]indolizino[1,2-b]quinolin-9-yl (2-(5-(3-(2,4-dihydroxy-5-isopropylphenyl)-5-hydroxy-4H-1,2,4-triazol-4-yl)-1H-indol-1-yl)ethyl)(methyl)carbamate], the “% Remaining 2 h (37° C.) HU” value ([2]; human plasma, 1 μM) was 29%, the “% Remaining 2 h (37° C.) HU” value ([2]; human plasma, 10 μM) was 30% and the “% Remaining 2 h (37° C.) MO” value ([3]; mouse plasma, 1 μM) was 32%. For the same molecule, the “% Remaining 2 h (37° C.) MO” value ([3]; mouse plasma, 10 μM) was 31%.
With `CC(C)c1cc(-c2nnc(O)n2-c2ccc3c(ccn3CCOC(=O)Nc3nc(=O)[nH]cc3F)c2)c(O)cc1O` [SDC-TRAP-0025, 2-(5-(3-(2,4-dihydroxy-5-isopropylphenyl)-5-hydroxy-4H-1,2,4-triazol-4-yl)-1H-indol-1-yl)ethyl (5-fluoro-2-oxo-1,2-dihydropyrimidin-4-yl) carbamate] the IC50 (HER2 [4]; [14]) was 395 nM and the IC50 (HER2 [5]; BT-474, SDC-TRAPs of the 52nd table) was 403 nM.
Work on `CCc1c2c(nc3ccc(OCC(=O)N(C)CCn4ccc5cc(-n6c(O)nnc6-c6cc(C(C)C)c(O)cc6O)ccc54)cc13)-c1cc3c(c(=O)n1C2)COC(=O)C3(O)CC` (stereo not drawn) [SDC-TRAP-0027, 2-((4,11-diethyl-4-hydroxy-3,14-dioxo-3,4,12,14-tetrahydro-1H-pyrano[3′,4′:6,7]indolizino[1,2-b]quinolin-9-yl)oxy)-N-(2-(5-(3-(2,4-dihydroxy-5-isopropylphenyl)-5-hydroxy-4H-1,2,4-triazol-4-yl)-1H-indol-1-yl)ethyl)-N-methylacetamide] yielded an IC50 (HER2 [4]; [14]) greater than 5000 nM and an IC50 (HER2 [5]; [15]) greater than 5000 nM.
With `CCc1c2c(nc3ccc(OCC(=O)N(C)CCOCCn4ccc5cc(-n6c(O)nnc6-c6cc(C(C)C)c(O)cc6O)ccc54)cc13)-c1cc3c(c(=O)n1C2)COC(=O)C3(O)CC` (stereo not drawn) [SDC-TRAP-0028, 2-((4,11-diethyl-4-hydroxy-3,14-dioxo-3,4,12,14-tetrahydro-1H-pyrano[3′,4′:6,7]indolizino[12-b]quinolin-9-yl)oxy)-N-(2-(2-(5-(3-(2,4-dihydroxy-5-isopropylphenyl)-5-hydroxy-4H-1,2,4-triazol-4-yl)-1H-indol-1-yl)ethoxy)ethyl)-N-methylacetamide] the IC50 (HER2 [4]; [14]) was greater than 5000 nM, the IC50 (HER2 [5]; [15]) was greater than 5000 nM and the “% Remaining 2 h (37° C.) HU” value ([2]; human, plasma, 2 h, 1 μM) was 51%. For the same molecule, the “% Remaining 2 h (37° C.) HU” value ([2]; human, plasma, 2 h, 10 μM) was 65%, the “% Remaining 2 h (37° C.) MO” value ([3]; mouse, plasma, 2 h, 1 μM) was 53% and the “% Remaining 2 h (37° C.) MO” value ([3]; mouse, plasma, 2 h, 10 μM) was 47%.
Molecule `CC(C)c1cc(-c2nnc(O)n2-c2ccc3c(ccn3CCOCCN(C)C(=O)CCC(=O)Nc3cccc4c3CN(C3CCC(=O)NC3=O)C4=O)c2)c(O)cc1O` (stereo not drawn) [SDC-TRAP-0033, N1-(2-(2-(5-(3-(2,4-dihydroxy-5-isopropylphenyl)-5-hydroxy-4H-1,2,4-triazol-4-yl)-1H-indol-1-yl)ethoxy)ethyl)-N4-(2-(2,6-dioxopiperidin-3-yl)-1-oxoisoindolin-4-yl)-N1-methylsuccinamide] has an IC50 (HER2 [4]; [14]) greater than 5000 nM and an IC50 (HER2 [5]; BT-474 cells) greater than 5000 nM.
For `CC(C)c1cc(-c2nnc(O)n2-c2ccc(CN3CCN(C(=O)CCCC(=O)Nc4cccc5c4CN(C4CCC(=O)NC4=O)C5=O)CC3)cc2)c(O)cc1O` (stereo not drawn) [SDC-TRAP-0041, 5-(4-(4-(3-(2,4-dihydroxy-5-isopropylphenyl)-5-hydroxy-4H-1,2,4-triazol-4-yl)benzyl)piperazin-1-yl)-N-(2-(2,6-dioxopiperidin-3-yl)-1-oxoisoindolin-4-yl)-5-oxopentanamide], the IC50 (HER2 [4]; [14]) was greater than 5000 nM and the IC50 (HER2 [5]; BT-474 cells) was greater than 10000 nM.
For `CCc1c2c(nc3ccc(OC(=O)N4CCC(CCn5ccc6cc(-n7c(O)nnc7-c7cc(C(C)C)c(O)cc7O)ccc65)CC4)cc13)-c1cc3c(c(=O)n1C2)COC(=O)[C@]3(O)CC` [SDC-TRAP-0063, 4,11-diethyl-4-hydroxy-3,14-dioxo-3,4,12,14-tetrahydro-1H-pyrano[3′,4′:6,7]indolizino[1,2-b]quinolin-9-yl 4-(2-(5-(3-(2,4-dihydroxy-5-isopropylphenyl)-5-hydroxy-4H-1,2,4-triazol-4-yl)-1H-indol-1-yl)ethyl)piperidine-1-carboxylate], the “tumor growth suppression (tumor volume)” value [6] was “greater tumor growth suppression than effector moiety irinotecan alone”, the “tumor targeting (tissue distribution, in words)” value [7] was “selectively targets and accumulates in tumor cells” and the concentration at 6 h (in vivo; Plasma Conc.) was 1690 nM. It also gave a concentration at 24 h (in vivo; Plasma Conc.) of 6.75 nM, a Kp at 6 h (in vivo; Tumor/Plasma Ratio) of 0.958 and a Kp at 24 h (in vivo; Tumor/Plasma Ratio) of 30.1. For the same molecule, the Kp at […] (in vivo; Tumor/Plasma Ratio) was 0.0122.
In the case of `CC(C)c1cc(-c2nnc(O)n2-c2ccc3c(ccn3CCNC(=O)CCCCCNC(=O)CCCC[C@H]3SC[C@H]4NC(=O)N[C@H]43)c2)c(O)cc1O` [SDC-TRAP-0234, N-(2-(5-(3-(2,4-dihydroxy-5-isopropylphenyl)-5-hydroxy-4H-1,2,4-triazol-4-yl)-1H-indol-1-yl)ethyl)-6-(5-((3aR,4R,6aS)-2-oxohexahydro-1H-thieno[3,4-d]imidazol-4-yl)pentanamido)hexanamide], the “Mass Retention” value ([1]; incubation 5 h, the 55th table) is reported as 9.56% and the Papp at 5 h ([1]; incubation 5 h, the 55th table) is reported as 0.0123 ×10⁻⁶ cm/s.
For `CCc1c2c(cc3ccc(O)cc13)-c1cc3c(c(=O)n1C2)COC(=O)[C@]3(O)CC` [SN-38], the “Mouse (10 μM) % Remaining 1 h (37° C.)*” value [8] was 64%, the “Media (5 μM) % Remaining 1 h (37° C.)*” value ([9]; 1 h) was 82% and the “Media (5 μM) % Remaining 19 h (37° C.)” value ([9]; 19 h) was 52%. For the same molecule, the IC50 [10] was greater than 10000 nM, the IC50 [11] was less than 10 nM and the IC50 [12] was 38 nM. For the same molecule, the “Mass Retention” value ([1]; incubation 5 h, the 55th table) was 38.2%, the Papp at 5 h ([1]; incubation 5 h, the 55th table) was 0.643 ×10⁻⁶ cm/s and the “Mass Retention” value ([1]; same protocol, the 56th table) was 46.6%. It also gave a Papp at 5 h ([1]; same protocol, the 56th table) of 1.87 ×10⁻⁶ cm/s, a Kp at 1 h (in vivo; Tumor/Plasma Ratio) of 0.07 and a Kp at […] (in vivo; Tumor/Plasma Ratio) of 0.01.
For `CC(C)c1cc(-c2n[nH]c(=O)n2-c2ccc3c(ccn3C)c2)c(O)cc1O` [ganetespib, reference compound], the “Concentration of ganetespib in plasma” value [13] was “<LLOQ” and the IC50 (HER2 [4]; BT-474, read-out: IC50 of in vitro HER2 assays) was roughly 30 nM.

Source: patent publication US9956293B2, “Targeted therapeutics” (Madrigal Pharmaceuticals, Inc., priority 2014, dated 2018)
